Earlier results in US9272037B2, “Method to treat premature ejaculation in humans” (priority 2005, dated 2016).

What was measured:
μ-opiate receptors = μ-opiate receptors (Homo sapiens, UniProt P35372)
[1] = for accumulation during multiple dose treatment: multiple dose treatment with tramadol
[2] = single oral dose of tramadol 100 mg
child = settings: inadvertent administration of 4 mg/kg to a child
[3] = target: phosphodiesterase type 5 (PDE5) (Homo sapiens, UniProt O76074); settings: PDE5 versus PDE6
[4] = oral, Viagra formulation

μ-opiate receptors, sequence (P35372 whole entry): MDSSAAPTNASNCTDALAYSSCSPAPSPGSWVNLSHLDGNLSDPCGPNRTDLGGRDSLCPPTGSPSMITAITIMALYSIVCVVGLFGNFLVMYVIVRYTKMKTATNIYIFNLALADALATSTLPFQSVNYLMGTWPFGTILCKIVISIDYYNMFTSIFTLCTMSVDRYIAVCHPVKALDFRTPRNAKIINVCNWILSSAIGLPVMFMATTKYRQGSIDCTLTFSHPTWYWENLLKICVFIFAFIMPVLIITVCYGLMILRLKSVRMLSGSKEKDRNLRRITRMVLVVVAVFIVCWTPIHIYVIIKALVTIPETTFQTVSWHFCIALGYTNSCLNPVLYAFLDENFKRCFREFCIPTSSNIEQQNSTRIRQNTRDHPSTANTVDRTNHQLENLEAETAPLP

COc1cccc(C2(O)CCCCC2CN(C)C)c1 (racemic) [tramadol, (+/−)-trans (RR,SS)-2-[(di-methylamino)methyl]-1-(3-methoxyphenyl)cyclohexanol]
affinity for μ-opiate receptors, fold less than codeine (μ-opiate receptors; versus codeine): 10 fold | affinity for μ-opiate receptors, fold less than d-propoxyphene (μ-opiate receptors; versus d-propoxyphene): 100 fold | affinity for μ-opiate receptors relative to dextromethorphan (μ-opiate receptors; versus dextromethorphan): equivalent to dextromethorphan | affinity for μ-opiate receptors, fold less than morphine (μ-opiate receptors; versus morphine): 6,000 fold | accumulation during multiple dose treatment [1]: approximately 2 fold | time to peak serum concentrations ([1]; oral administration): ≤ 2 h | duration of the analgesic effect [2]: about 6 hours | adverse event after overdose (child): seizure activity

CN(C)C[C@H]1CCCC[C@]1(O)c1cccc(O)c1 [O-desmethyltramadol (M1), O-desmethyltramadol]
accumulation during multiple dose treatment [1]: approximately 2 fold | half-life ([1]; single oral dose of 100 mg tramadol): 9 h

Cn1c(=O)c2c(ncn2C)n(C)c1=O [caffeine, 3,7-dihydro-1,3,7-trimethyl-1H-purine-2,6-dione]
time to maximal plasma concentrations (after oral, rectal or parenteral administration): ≤ 1 h | half-life in plasma (in vivo): 3 to 7 h | amount needed to affect sleep significantly (humans): more than 200 mg

CCCc1nn(C)c2c(=O)[nH]c(-c3cc(S(=O)(=O)N4CCN(C)CC4)ccc3OCC)nc12 [sildenafil, 1-[[3-(6,7-dihydro-1-methyl-7-oxo-3-propyl-1H-pyrazolo[4,3-d]pyrimidin-5-yl)-4-ethoxyphenyl]sulfonyl]-4-methyl piperazine]
potency for PDE5 compared to PDE6 [3]: about 10 fold | absolute bioavailability [4]: about 40%
